Experimental data published in PubChem BioAssay AID624491 (Broad Institute, 2012).

Test system: D54 ERlucT glycosylation luciferase reporter, luminescence, 24 h
Assay: N-linked glycosylation inhibitors, luciferase reporter, dose response, D54 ERlucT cells, luminescence, cherry-picks (AID 624491);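 note: signal gain reflects blocked N-linked glycosylation of a luciferase reporter; actives raise luciferase signal so AC26 marks activators of the reporter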

Compound | AC26 [nM]
O=C(/C=C/c1ccc([N+](=O)[O-])cc1)/C=C/c1ccco1 | 1140
Cc1cc2c(cc(C(=O)OCC(=O)NCc3ccco3)n2C)s1 | 198
O=c1cc(-c2ccc(O)cc2)oc2cc(O)c(C3OC(CO)C(O)C(O)C3O)c(O)c12 (stereo not drawn) | 690
CCOC(=O)Cc1csc(/N=C/c2c(O)n(-c3ccc(C)c(C)c3)c(=O)c3ccccc23)n1 | 2580
CC(=O)c1c(C)[nH]c(C(=O)Nc2cccc(S(=O)(=O)N3CCCC3)c2)c1C | 2610
O=C(Nc1c2ccccc2nc2ccccc12)C(Cl)(Cl)Cl | 3340
CCCCCCC(=O)N(O)C1CC(=O)N(c2ccc(F)cc2)C1=O (stereo not drawn) | 1290
COc1cc(-c2noc(C)c2/C=C/c2ccc(N)cc2)cc(OC)c1OC | 467
COc1ccccc1OCC(=O)NNC(=O)c1ccoc1C | 722
CC(=O)Nc1ccc(Nc2ccc3c4c(cc(=O)n3C)-c3ccccc3C(=O)c24)cc1 | 730
COc1ccccc1/C=C/C(=O)/C=C/c1ccccc1O | 696
N#Cc1c(NCCN)nc(-c2ccco2)c2c1CCCC2 | 1730
Cc1noc(C)c1-c1ccc(C(=O)NCc2cccnc2)c2occc12 | 4700
COc1ccccc1N1CCN(C(=O)c2[nH]c(C(F)(F)F)nc2-c2ccccc2)CC1 | 2770
COc1cccc(Oc2ccc(C(F)(F)F)cc2NC(=O)CN2C(=O)NC3(CCCC3)C2=O)c1 | 4850
Cc1ccc(COc2ccccc2-c2cc(C(=O)N/N=C/c3cccnc3)[nH]n2)cc1 | 5260
Cc1ccc(-c2nn3c(C)nnc3s2)cc1NCc1c(F)cccc1Cl | 7650
CC(=O)NC(=C(Cl)Cl)S(=O)(=O)c1ccccc1 | 1080
Cn1c(=O)[nH]c(=O)c2c1nc(NN)n2CCOc1ccccc1 | 2570
CCNCCNc1ccc([N+](=O)[O-])c2cccnc12 | 7750
Cc1ccc(N2CC(C(=O)Nc3ccc(S(=O)(=O)N4CCOCC4)cc3)CC2=O)cc1Cl (stereo not drawn) | 3860
COC(=O)c1c(NC(=O)c2cccnc2Cl)sc(C(=O)N(C)C)c1C | 2090

Compound | AC26 [nM]
Cc1cc(C)c2nc3nc(C)c(C)cc3c(N)c2c1 | 998
CCOC(=O)c1[nH]c(C)c(C(=O)Nc2ccc(C)cc2C)c1C | 494
Cc1cc2nnc(SCC(=O)NCc3cccs3)n2c2ccccc12 | 1660
COc1cc(CN2CCc3ccccc3C2)ccc1O | 696
NC(=O)N=Nc1c2[nH]c3ccccc3nc-2c2ccccc12 | 1130
COc1cccc(/C=C2\SC(=S)N(CCC(=O)N3CCCCC3)C2=O)c1 | 5770
O=C1Nc2ccccc2/C1=C/c1nc2ccccc2c(=O)n1-c1ccc(O)cc1 | 11500
COc1ccccc1/C=N/NC(=O)c1cc2c(OC)c(OC)ccc2[nH]1 | 495
COc1cc2c(cc1OC)CN(c1ccc(-c3ccccc3OC)nn1)CC2 | 3380
CCOc1ccc(Br)cc1C(=O)Nc1ccc(C(=O)NCC(C)C)cc1 | 4090
Cc1nnc2c3ccccc3c(-c3cccs3)nn12 | 3170
COc1cc(C(=O)N/N=C/c2cc([N+](=O)[O-])cs2)cc(OC)c1OC | 349
Cc1noc2ncnc(Sc3ccccc3Cl)c12 | 12500
CC(=O)Nc1ccc(CNc2ncnc3ccc(-c4c(C)noc4C)cc23)cc1 | 290
CNC(=O)c1cccn(Cc2cc(C(F)(F)F)cc(C(F)(F)F)c2)c1=O | 16000
CCOc1ccc(N2CCc3c(C)nc(SC)nc32)cc1 | 2650
COc1cc(-c2nc(-c3ccccc3)c(-c3cccs3)[nH]2)cc(OC)c1OC | 3280
COc1cccc(OCC(O)CN2CCN(CCN3C(=O)c4cccc5cccc(c45)C3=O)CC2)c1 (stereo not drawn) | 4250
CC(/C=N/NC(=O)c1cc(-c2ccccc2)nc2ccccc12)=C\c1ccco1 | 2040
O=C(NCC1CCCO1)c1cc(-c2ccc(F)cc2)no1 (stereo not drawn) | 5760
Cc1onc(C(=O)Nc2cccc(C(F)(F)F)c2)c1[N+](=O)[O-] | 2720
COc1ccc(NC(=O)C2Cc3c(-c4cccc(NC(C)=O)c4)ccnc3O2)cn1 (stereo not drawn) | 2590

Compound | AC26 [nM]
COc1ccc(C(=O)/C=C2/C(=O)Nc3ccccc32)cc1OC | 714
C[C@H]1CN([C@@H](C)CO)C(=O)Cc2cc(NC(=O)CCC(F)(F)F)ccc2O[C@H]1CN(C)S(=O)(=O)c1ccc(F)cc1 | 5300
COc1cc(NC(=O)NCc2ccco2)ccc1-c1ccc(NC(=O)NCc2ccco2)cc1OC | 4350
CC1(C)Cc2nc3sc4c(SCC(=O)NCc5ccccc5)ncnc4c3cc2CO1 | 160
O=C(c1ccc(Cl)c(S(=O)(=O)N2CCCCC2)c1)N1CCN(Cc2ccccc2)CC1 | 4150
CC(C)CCNC(=O)CCCOc1cc(=O)n(C)c2ccccc12 | 4270
COCCCNC(=O)c1sc2ncn(CC(=O)Nc3ccc(C)c(Cl)c3)c(=O)c2c1C | 1380
NC(=O)c1ccc(NC(=O)CN2C(=O)NC(c3ccccc3)(c3ccccc3)C2=O)cc1 | 3410
CCOc1cc(-c2c(C#N)c(N)nc3c2CCc2ccccc2-3)ccc1O | 9010
COc1ccc([C@@H]2[C@@H]3C(=O)N(C(C)(C)C)C(=O)[C@@H]3[C@]3(Cc4ccccc4)C(=O)N(c4cccc(Cl)c4)C(=O)N23)cc1 | 2990
COc1ccc(S(=O)(=O)NCc2ccccn2)cc1NC(=O)c1ccccc1C | 2690
COc1ccc(-n2c(NNC(C)=O)nc3sc4c(c3c2=O)CCCC4)cc1 | 6720
Nc1c(N(Cc2ccccc2)C(=O)COc2ccc([N+](=O)[O-])cc2)c(=O)[nH]c(=O)n1Cc1ccccc1 | 389
COc1cc2ccccc2cc1C(=O)N/N=C/c1cccs1 | 232
NC(N)=N/N=C/c1ccc2cccc(OCc3ccccc3)c2n1 | 4150
Cc1cccc(Nc2nc(N)nc(-c3oc4ccccc4c3C)n2)c1 | 7050
CC(=O)c1cccc(-c2ccnc3c2CC(C(=O)NCc2ccccc2)O3)c1 (stereo not drawn) | 657
Cc1cc(NS(=O)(=O)c2ccc(NC(=O)COc3c(C)cc(Br)cc3C)cc2)no1 | 550
OCC1OC(n2cnc3c(SCc4ccccc4)ncnc32)C(O)C1O (stereo not drawn) | 1050
Cc1ccc(S(=O)(=O)C(NC(=O)c2ccccc2)=C(Cl)Cl)cc1 | 4090
C=CCn1c(SCc2c(C)noc2C)nc2ccccc2c1=O | 163
Cc1ccc(C(=O)N/C(=C/c2cccs2)C(=O)NCCc2c[nH]c3ccccc23)cc1 | 1080

Compound | AC26 [nM]
COc1ccc2cc(C)c3nnc(SCC(=O)Nc4nc(-c5ccc(F)cc5)cs4)n3c2c1 | 2360
O=C(O)CCC/C=C\C[C@@H]1[C@@H](/C=C/[C@@H](O)COc2cccc(Cl)c2)[C@H](O)C[C@@H]1O | < 1.2
CC(C)(C)n1nnnc1C(c1ccccc1)N1CCc2ccccc2C1 (stereo not drawn) | 13900
O=C(Nc1ccccc1N1CCOCC1)c1ccc2nc[nH]c2c1 | 1130
CC[C@H](C)C(=O)O[C@H]1C[C@@H](C)C=C2C=C[C@H](C)[C@H](CC[C@@H]3C[C@@H](O)CC(=O)O3)[C@H]21 | 301
Cc1[nH][nH]c(=O)c1C(c1ccc(-c2cccc(Cl)c2)o1)c1c(C)[nH][nH]c1=O | < 1.2
CCCCOc1ccccc1C1CC(=O)NC2=C1C(=O)CCC2 (stereo not drawn) | 1320
CCN1C(=O)CCN(C2CCCC2)c2nc(Nc3ccc(C(=O)NC4CCN(C)CC4)cc3OC)ncc21 | 479
COc1ccc(NC(=O)c2cc(S(=O)(=O)N(C)C)ccc2N2CCCC2)cc1Cl | 4800
CCc1ccc(C2c3[nH]c4ccccc4c3CCN2C(=O)c2ccc(=O)n(C)n2)cc1 (stereo not drawn) | 1330
NC(=O)c1cccc(-c2ccnc3c2CC(C(=O)NCc2ccccc2)O3)c1 (stereo not drawn) | 2000
COc1cc(/C=N/NC(=O)c2cc(-c3cccn3C)n[nH]2)cc(OC)c1OC | 1730
COc1cccc(C(NC(C)=O)c2nc(-c3ccccc3C)cs2)c1 (stereo not drawn) | 774
CC1CC(C)CN(C(=O)/C=C/c2ccc([N+](=O)[O-])s2)C1 (stereo not drawn) | 8460
COc1cc2c(C#CCCO)c(-c3ccsc3)oc(=O)c2cc1OC | 226
CCCCCCC(=O)N(O)C1CC(=O)N(c2ccc(C)cc2)C1=O (stereo not drawn) | 3990
COc1ccc(OC)c(S(=O)(=O)Nc2ccc3c(c2)n(C)c(=O)n3C)c1 | 3320
CC(C)COc1ccc(C(=O)OCC(=O)NCc2cccs2)cc1 | 1750
CCC(Cc1ccccc1)NC(=O)c1ccc2nc(N3CCOCC3)sc2c1 (stereo not drawn) | 1250
COc1ccc(NC(=O)c2cc3c(=O)n(C)c4ccccc4c3n2C)cc1OC | 2940
COc1cc2c(cc1OC)C(c1cc(Br)ccc1F)N(C(=O)CCl)CC2 (stereo not drawn) | 2280
COc1ccc(/C=C/C(=O)Oc2cccc(/C=N/NC(=O)COc3c(C)cccc3C)c2)cc1 | 4770

Compound | AC26 [nM]
CC(C)c1ccc(/C=N/NC(=O)c2ccccc2Cl)cc1 | 1910
Cc1cccn2c(=O)c3cc(C(=O)NC4CCCCC4)n(C)c3nc12 | 10200
O=C(Nc1ccncc1)C1CCCN(S(=O)(=O)c2cccc3cccnc23)C1 (stereo not drawn) | 579
c1ccc(C2=Nn3c(nnc3-c3n[nH]c4c3CCC4)SC2)cc1 | 4020
Cc1ccc2c(c1)C(=O)N1[C@H]3c4cc(Cl)ccc4OC[C@@H]3[C@H](c3ccccc3)[C@]1(C)C(=O)N2 | 1260
C[C@@]12C(=O)Nc3ccc(Br)cc3C(=O)N1[C@H]1c3ccccc3OC[C@@H]1[C@@H]2c1ccccc1 | 368
COc1cc(C#Cc2ccc3cc(CCCO)oc(=O)c3c2)cc(OC)c1 | 161
COc1cc(NC(=O)c2ccccc2OCc2ccccc2)cc(OC)c1OC | 1030
COC1C(O)C(C)OC(OC2C(Oc3cccc4c(O)c5c(=O)oc6ccc(C)c7c(=O)oc(c34)c5c67)OC(C)C(O)C2O)C1O (stereo not drawn) | 1000
O=C(CNc1cccc2ccccc12)N/N=C/C(Br)=C/c1ccccc1 | 17100
Cc1ccc(C=Nc2ccccc2C(N)=O)cc1 | 2520
COc1ccc(/C=N\NC(=O)c2ccccc2F)cc1COc1ccc(F)cc1F | 3550
COc1ccc2nc(C)cc(Nc3ccc(N4CCN(C)CC4)cc3)c2c1 | 694
CCOc1ccc2nc(NCCNC(=O)Nc3cccc(C)c3)c(C#N)cc2c1 | 4010
CNc1ccc(Br)cc(C(=O)/C=C/c2cccc(OC)c2OC)c1=O | 2220
O=C(COC(=O)c1cccc(Br)c1)Nc1cccc2c1C(=O)c1ccccc1C2=O | 4290
O=C(NCCc1ccc(F)cc1)c1coc(=O)c(Br)c1 | 413
COc1ccc(C2=NOC(C(=O)NCc3ccc(F)cc3)C2)cc1 (stereo not drawn) | 516
Cc1cnc(C(=O)Nc2ccc(OC(F)(F)F)cc2)cn1 | 9150
CCc1ccc(/C=N/NC(=O)c2nnn(-c3nonc3N)c2C(C)C)cc1 | 6420
